The values that follow come from article PMC6334293 (Journal of medicinal chemistry, 2018).

For experiment [1], the target named is T1, BCL6^BTB (Homo sapiens, UniProt P41182, C67R/C84N/E99V).
In experiment [2] the target is BCL6^BTB LG. The conditions noted are these: read-out: KD (MST); microscale thermophoresis; cited from earlier work.
For experiment [3], the system named is Ly1B50. In words: Growth inhibition. Particulars: Homo sapiens, 48 h, read-out: GI50 BCL6 independent cell Ly1B50. Type of experiment: cell-based.
Experiment [4] deals with BCL6-dependent and BCL6-independent lymphoma cells. In words: Differential cell killing assays, panel statements. It is filed as cell-based, human.
The test system of experiment [5] is OCI-Ly7. In words: Growth inhibition. It is filed as cell-based, human.
For experiment [6], the system named is SUDHL6. In words: Growth inhibition. It is filed as cell-based, human.
Experiment [7] deals with T2, MIZ1 (Homo sapiens, UniProt Q13105).
T2 sequence (Q13105 1-115): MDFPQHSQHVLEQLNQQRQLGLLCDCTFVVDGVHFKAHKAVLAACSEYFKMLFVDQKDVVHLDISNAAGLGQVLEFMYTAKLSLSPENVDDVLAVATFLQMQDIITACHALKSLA
In words: Protein-observed NMR binding to MIZ1 BTB. The conditions noted are these: Figure S8.

Experiment [8] has as its target T1, BCL6^BTB. Particulars: NMR KD.
In experiment [9] the target is KAISO (Homo sapiens, UniProt Q86T24). Particulars: Figure S8.
In experiment [10] the target is LRF (Homo sapiens, UniProt O95365). The conditions noted are these: Figure S8.

Some results are limits rather than exact numbers.

Chain of LRF (O95365 1-130): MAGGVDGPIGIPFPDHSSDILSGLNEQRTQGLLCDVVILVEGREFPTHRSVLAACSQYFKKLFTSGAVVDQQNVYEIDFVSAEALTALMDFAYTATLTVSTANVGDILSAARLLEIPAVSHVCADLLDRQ
Chain of KAISO (Q86T24 1-122, species assumed): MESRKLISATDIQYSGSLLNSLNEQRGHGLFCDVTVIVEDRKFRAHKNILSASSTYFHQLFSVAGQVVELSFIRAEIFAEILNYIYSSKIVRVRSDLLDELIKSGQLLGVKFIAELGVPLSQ

The molecule `CCN(CC)C(=O)Cn1cc(CN2CCN(C)CC2)c2ccc(NC(=S)NCCc3c[nH]c4ccccc34)cc21` [Compound 15d, 2-(6-(3-(2-(1H-Indol-3-yl)ethyl)thioureido)-3-((4-methylpiperazin-1-yl)methyl)-1H-indol-1-yl)-N,N-diethylacetamide] registered a 6PA in experiment [1] of 390 Hz.

Turning to `O=C(O)CC(C(=O)O)N1C(=O)/C(=C2/C(=O)Nc3ccc(Br)cc32)SC1=S` (stereo not drawn) [79–6], the Kd in experiment [2] is 129 µM.

Consider `CN1CCN(Cc2cn(CC(=O)NCC(=O)O)c3cc(NC(=S)NCCc4c[nH]c5ccccc45)ccc23)CC1` [Compound 15c, (2-(6-(3-(2-(1H-Indol-3-yl)ethyl)thioureido)-3-((4-methylpiperazin-1-yl)methyl)-1H-indol-1-yl)acetyl)glycine], for which, in [3], the 50% growth inhibitory concentration (GI50) is over 500 µM. In experiment [4], the “effects in the cell killing assays” value is “no effects”.

Take `O=C(O)CNC(=O)Cn1ccc2ccc(NC(=S)NCCc3c[nH]c4ccccc34)cc21` [Compound 7i, (2-(6-(3-(2-(1H-Indol-3-yl)ethyl)thioureido)-1H-indol-1-yl)acetyl)glycine]: in [3], the GI50 is over 500 µM. For the same molecule, the “effect on all seven lymphoma cell lines” value in [4] (at the concentration of 500 μM) was “no effect”.

On to `CC(C)NC(=O)Cn1ccc2ccc(NC(=S)NCCc3c[nH]c4ccccc34)cc21` [Compound 7b, 2-(6-(3-(2-(1H-Indol-3-yl)ethyl)thioureido)-1H-indol-1-yl)-N-isopropylacetamide], for which the “improvement of 6PA value compared to compound 7a” value in [1] is 3.7 fold.

Take `CN1CCN(Cc2cn(CC(=O)N3CCCCC3)c3cc(NC(=S)NCCc4c[nH]c5ccccc45)ccc23)CC1` [Compound 15e, 1-(2-(1H-Indol-3-yl)ethyl)-3-(3-((4-methylpiperazin-1-yl)methyl)-1-(2-oxo-2-(piperidin-1-yl)ethyl)-1H-indol-6-yl)thiourea]: the GI50 is over 500 µM in experiment [3] and 33 to 103 µM in [4] (Homo sapiens, read-out: GI50 for BCL6-dependent lymphoma cells). In addition, the “effect on all tested BCL6-independent lymphoma cells” value in [4] (at the concentration of 500 μM) is “no effect”.

Turning to `CC1CN(C(=O)Cn2cc(CN3CCN(C)CC3)c3ccc(NC(=S)NCCc4c[nH]c5ccccc45)cc32)CCO1` (stereo not drawn) [Compound 15g, 1-(2-(1H-Indol-3-yl)ethyl)-3-(1-(2-(2-methylmorpholino)-2-oxoethyl)-3-((4-methylpiperazin-1-yl)methyl)-1H-indol-6-yl)thiourea], the “cellular activity, OCI-Ly7 cells” value in experiment [5] is on record as “only showed activity”. For the same molecule, in experiment [3], the GI50 is over 500 µM.

`COC(=O)Cn1cc(CN2CCN(C)CC2)c2ccc(NC(=S)NCCc3c[nH]c4ccccc34)cc21` [Compound 13, Methyl 2-(6-(3-(2-(1H-indol-3-yl)ethyl)thioureido)-3-((4-methylpiperazin-1-yl)methyl)-1H-indol-1-yl)acetate]: the “cellular activity, SUDHL6 cells” value in experiment [6] is on record as “weak cellular activity”. Also, the concentration for 50% growth inhibition (GI50) in [3] is over 500 µM. In [1], this molecule showed a 6PA of 363 Hz.

For the molecule `CN1CCN(Cc2cn(CC(=O)N3CCOCC3)c3cc(NC(=S)NCCc4c[nH]c5ccccc45)ccc23)CC1` [Compound 15f, 1-(2-(1H-Indol-3-yl)ethyl)-3-(3-((4-methylpiperazin-1-yl)methyl)-1-(2-morpholino-2-oxoethyl)-1H-indol-6-yl)thiourea], the “cellular activity, OCI-Ly7 cells” value in [5] is reported as “weak potency”. For the same molecule, in [3], the concentration for 50% growth inhibition (GI50) was over 500 µM. The “activity to other tested BCL6-dependent lymphoma cells” value in experiment [4] (other than OCI-Ly7) was “no obvious activity”. In addition, the “binding to MIZ1 BTB domain” value in experiment [7] was “no interactions”. Besides, the “improvement of affinity over 15a” value in experiment [8] came to 6 fold. In addition, in experiment [9], the “binding to KAISO BTB domain” value is “no interactions”. Also, the “binding to LRF BTB domain” value in experiment [10] is recorded as “no interactions”.

Consider `CC(C)NC(=O)Cn1cc(CN2CCN(C)CC2)c2ccc(NC(=S)NCCc3c[nH]c4ccccc34)cc21` [Compound 15a, 2-(6-(3-(2-(1H-indol-3-yl)ethyl)thioureido)-3-((4-methylpiperazin-1-yl)methyl)-1H-indol-1-yl)-N-isopropylacetamide], for which the 50% growth inhibitory concentration (GI50) in experiment [3] was over 500 µM. For the same molecule, the “effects in the cell killing assays” value in [4] is listed as “no effects”.
